From patent US20040147006A1, “Peptides that bind to DNA and inhibit DNA replication, and methods of use” (priority 2001, published 2004) come the findings set out here.

For assay [1], the target named is T1, T-ag oligomerization on 64-bp oligonucleotide containing the SV40 core origin (Simian virus 40, UniProt P03070).
T1 construct: made in house
The assay is classed as biochemical. As to conditions: for Effect on T-ag oligomerization: peptide final concentration 0.5 mM. How it is done:
(§1) Electrophoretic mobility shift assays (EMSA). Double stranded oligonucleotides, ^32P labeled at 5′ termini, were prepared using standard procedures (Sambrook, J., et al., 1989, Cold Spring Harbor Laboratory, Cold Spring Harbor, N.Y.; Sreekumar, K. A., et al., 2000, p. 49-67; In, L. Raptis (ed.), Methods in Molecular Biology; SV40 Protocols; Humana Press; Totowa, N.J.). EMSA rections were conducted using conditions for SV40 in vitro replication (Wobbe, C. R., et al., 1985, Proc. Natl. Acad. Sci. USA 82:5710-571 4). The reactions (20 μl) contained 7 mM MgCl2, 0.5 mM DTT, 4 mM AMP-PNP, 40 mM creatine phosphate (pH 7.6), 0.48 μg of creatine phosphate kinase, 5 μg of bovine serum albumin, 0.8 μg of Hae III-digested pBR322 ([…]; used as a nonspecific competitor), about 25 fmol of double stranded oligonucleotide, T-ag and the indicated amounts of peptide. After a 20-min incubation at 37° C., glutaraldehyde (0.1 % final concentration) was added and the reaction products were further incubated for 5 min. The reactions were stopped by the addition of 5 μl of 6× loading dye II (15% Ficoll, 0.25% bromophenol blue, and 0.25% xylene cyanol; Sambrook, J., et al., 1989, Cold Spring Harbor Laboratory, Cold Spring Harbor, N.Y.) to the reaction mixtures. Samples containing T-ag were applied to 3.5 to 12% gradient polyacrylamide gels and electrophoresed in 0.5% Tris-borate-EDTA (TBE) pH 8.4 for about 1.5 h (10 watts).

The subject of assay [2] is 64 bp enhancer control (SEQ ID NO: 29). In words: Peptide band shift (EMSA without T-ag), control oligonucleotide. Format: binding. Conditions: 64 bp enhancer control oligonucleotide; listed as peptide T124A13. How it is done: as §1
Peptide based band shift reactions were identical to those described above except that T-ag was omitted from the reactions and the final glutaraldehyde concentration was reduced to 0.05 %. Moreover, the samples were loaded on 8% polyacryamide gels and electrophoresed in 0.5% TBE pH 8.4 for about 3h (about 200 volts). The gels were dried on Whatman 3 MM paper, subjected to autoradiography and quantitated using a Molecular Dynamics PhosphorImager (Sunnyvale, Calif.).
A general note: Mobility shift assays separate free from complexed probe on a gel.

Assay [3] deals with double stranded oligonucleotide containing the SV40 core origin (SEQ ID NO: 24). The assay is described as follows: Nitrocellulose filter binding of peptide to DNA. As to conditions: for Binding to DNA in filter binding assay, mutant set: 20 nmoles peptide (1 mM final concentration); for Binding to DNA in filter binding assay, E1 peptides: peptide 0.25 mM and 0.5 mM. How it is done:
Nitrocellulose filter binding reactions. Assay for the ability of NLS based peptides to bind to DNA were performed using published methods (Sreekumar, K. A., et al., 2000, In, L. Raptis (ed.), Methods in Molecular Biology: SV40 Protocols; Humana Press, Totowa, N.J. p. 49-67). Reactions (20 μl) contained 7 mM MgCl2, 0.5 mM DTT, 4 mM AMP-PNP, 40 mM creatine phosphate (di-Tris salt pH7.7), 0.48 μg of creatine phosphokinase, 0.2 mg of bovine serum albumin per ml, 0.8 μg of Hae III-digested pBR322 DNA, about 25 fmol of a given oligonucleotide (about 10^6 cpm/pmol) and the indicated peptide. After incubation for 20 min at 37° C., the mixtures were filtered under suction through alkali-treated nitrocellulose filters (Millipore type HAWP; pore size, 0.4 μm; stored in 100 mM Tris-HCl, pH7.5). The filters were then washed with 5 ml of 100 mM Tris-HCl, pH 7.5, and were dried and counted in a Beckman LS 3801 scintillation counter.

Assay [4] has as its system 64 bp SV40 core origin (SEQ ID NO: 24). In words: Peptide band shift (EMSA without T-ag), core origin. Format: binding. As to conditions: SV40 core origin. As for the experimental part:
as §1
[…] Moreover, the samples were loaded on 8% polyacryamide gels and electrophoresed in 0.5% TBE pH 8.4 for about 3h (about 200 volts). The gels were dried on Whatman 3 MM paper, subjected to autoradiography and quantitated using a Molecular Dynamics PhosphorImager (Sunnyvale, Calif.).

The target in assay [5] is T2, T-ag helicase ATPase (Simian virus 40, UniProt P03070).
T2 construct: made in house
T2 sequence (P03070 whole entry): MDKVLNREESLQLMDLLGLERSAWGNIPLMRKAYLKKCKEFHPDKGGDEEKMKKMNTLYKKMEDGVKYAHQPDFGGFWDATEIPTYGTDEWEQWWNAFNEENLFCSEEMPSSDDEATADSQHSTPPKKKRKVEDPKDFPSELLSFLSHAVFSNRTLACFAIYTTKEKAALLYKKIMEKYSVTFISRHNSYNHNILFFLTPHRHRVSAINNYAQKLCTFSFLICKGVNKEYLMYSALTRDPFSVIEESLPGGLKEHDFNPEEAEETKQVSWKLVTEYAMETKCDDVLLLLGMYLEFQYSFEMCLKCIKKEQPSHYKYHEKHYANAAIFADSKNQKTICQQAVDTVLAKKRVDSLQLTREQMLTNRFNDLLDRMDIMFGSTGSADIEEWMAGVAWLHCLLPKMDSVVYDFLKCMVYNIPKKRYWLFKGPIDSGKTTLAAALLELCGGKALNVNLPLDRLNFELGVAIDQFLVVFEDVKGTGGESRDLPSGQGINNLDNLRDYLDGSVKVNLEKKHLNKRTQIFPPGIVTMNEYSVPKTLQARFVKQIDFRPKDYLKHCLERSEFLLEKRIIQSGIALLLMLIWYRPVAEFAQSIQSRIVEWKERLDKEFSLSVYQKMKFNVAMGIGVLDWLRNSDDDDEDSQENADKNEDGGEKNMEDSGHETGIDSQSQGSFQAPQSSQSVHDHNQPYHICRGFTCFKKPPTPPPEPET
Format: biochemical, SV40. Conditions: duplicate lanes, FIG. 13. How it is done:
A method for measuring ATP hydrolysis involves incubating T-ag with a ^32P-labeled ATP, cross-linking with gluteraldehyde, removing unincorporated nucleotides by passing the reaction products over a Bio-Spin P-30 column, drying the eluate in a Speedvac, resuspending the samples in formic acid, and performing thin layer chromatography on PEI (polyethyleneimine) plates. Using autoradiography, the amount of ATP, ADP and AMP associated with T-ag was determined.

Assay [6] concerns SV40 DNA replication in HeLa human cell crude extracts. In words: SV40 in vitro replication reaction. Format: biochemical. As to conditions: 30 μl reactions, with T-ag. As for the experimental part:
DNA replication reactions. SV40 in vitro replication reactions were conducted as described by Wobbe et al 1985, Proc. Natl. Acad. Sci. USA 82:5710-5714 (see also, Bullock, P. A., et al., 1998, p. 223-243. In S. Cotterill (ed.), Eukaryotic DNA Replication; A practical Approach, Oxford University Press, Oxford). Reaction mixtures (30 μl) contained 7 mM MgCl2, 0.5 mM DTT, 4 mM ATP, 40 mM creatine phosphate (di-Tris salt pH7.7), 1.4 μg of creatine phosphokinase, 12.5 μg/ml pSV01ΔEP, dATP, dGTP, and dTTP (100 μM each), CTP, GTP, and UTP (200 μM each), [α-^32p] dCTP (20 μM, about 5 cpm/fmol) and the indicated peptides.

Where [7] appears, read: T-ag 6 pmol, 64-bp SV40 core origin, peptide concentration not given.
[8] abbreviates: 13-mer set at 1 mM final concentration (20 nmoles).
Setting [9] is: peptide 0.5 mM to 2 mM, replication conditions, pBR322 competitor.
The mark [10] stands for this setting: peptide final concentration 1 mM (20 nmoles), T-ag 6 pmol.
Where [11] appears, read: high peptide concentrations (1 mM and 2 mM).

“Also recorded” adds a separate entry of the source. Like-named read-outs stand apart in the source and are kept apart here.

T1 sequence (P03070 whole entry): as above

As to ADSQHSAPPKKKR [T124A13], the “Effect on T-ag oligomerization, mutant set (FIG. 11 Panel B)” value (“Effect … (FIG. 11 Panel B)” below) in assay [1] (setting [7]) was “does not destroy the inhibitory property of the peptide”. In addition, the “Peptide/DNA complex formation in peptide band shift” value in assay [2] is “does not require a large degree of sequence specificity; also recorded: requires little demonstrable nucleotide sequence specificity; also recorded: Mobility shifts are seen”; in assay [4] (setting [8]), “does not affect DNA binding”; in assay [4] (13-mer set at 1 mM final concentration (20 nmoles), listed as peptide T124A13), “bound to DNA and formed a complex; also recorded: Mobility shifts are seen”. Besides, the “Binding to DNA in filter binding assay, mutant set” value (shortened to “Binding to DNA … mutant set”) in assay [3] is “bind to DNA as well as does wild type peptide T-213”.

For ADSQHSTAPKKKR [P125A13], in assay [1] (setting [7]), the “Effect … (FIG. 11 Panel B)” value was “Full inhibition of oligomerization”. Also, in assay [3], the “Binding to DNA … mutant set” value is “bind to DNA as well as does wild type peptide T-213”.

As to ADSQHSTPAKKKR [P126A13], the “Effect … (FIG. 11 Panel B)” value in assay [1] (setting [7]) is listed as “Full inhibition of oligomerization”. For the same substance, the “Binding to DNA … mutant set” value in assay [3] is “bind to DNA as well as does wild type peptide T-213”.

Take ADSQHSpTPPKKKR [peptide 113]: in assay [1], the “Effect on T-ag oligomerization (hexamer and double hexamer formation)” value (shortened to “Effect … (hexamer and double hexamer formation)”) is “little or no effect on T-ag oligomerization”; the “Effect … (FIG. 11 Panel B)” value is listed as “did not; also recorded: no inhibition of oligomerization of T-ag”. For the same substance, the “Binding to DNA in filter binding assay” value in assay [3] (setting [9]) was “did not bind DNA at significant levels”. In addition, in assay [3] (peptide 0.5 mM to 2 mM, replication conditions, pBR322 competitor, listed as peptide T-113), the “Binding to DNA in filter binding assay” value was “did not bind to the oligonucleotide at significant levels”. Also, in assay [5], the “Effect on ATPase of T-ag” value is given as “did not modulate the ATPase of T-ag activity”.

With “ATADSQHSTPPKKKRKV (Virus; Host Macaca mulatta; DOMAIN (1)..(17) Domain SV40 T-Antigen (116)...(132)) [peptide 217, 17-mer of SV40 T-ag with complete NLS]”, the “Inhibition of SV40 in vitro DNA replication” value (“Inhibition of SV40” below) in assay [6] is on record as “not an efficient inhibitor of DNA replication; also recorded: unable to inhibit replication”. Also, the “Effect on T-ag oligomerization” value in assay [1] (T-ag 6 pmol) is reported as “inhibited T-ag oligomerization”. Moreover, the “Effect … (hexamer and double hexamer formation)” value in assay [1] (setting [10]) is given as “completely blocked”. The “Binding to DNA in filter binding assay” value in assay [3] (setting [11]) is “saturated”; in assay [3] (peptide 0.5 mM), “significant binding was observed”; in assay [3] (setting [9]), “relatively high affinity for binding to DNA”; in assay [3] (peptide 0.5 mM to 2 mM, replication conditions, pBR322 competitor, listed as peptide T-217), “higher affinity for this DNA than does peptide T-213”.

With ATADSQHSpTPPKKKRKV [peptide 117], in assay [1], the “Effect … (hexamer and double hexamer formation)” value is listed as “no inhibition of T-ag assembly”. In addition, the “Binding to DNA in filter binding assay” value in assay [3] (setting [11]) is reported as “observed to bind to DNA”; in assay [3] (high peptide concentrations (1 mM and 2 mM), listed as peptide T-117) it was “observed to bind to DNA at higher peptide concentrations”.

On to “KKRRKRVKLVGPSTSEQSNASESSG [SEQ ID NO: 30]”, for which the “Inhibition of SV40” value in assay [6] is “retains ability to inhibit replication of DNA”; in assay [6] (listed as SEQ ID NO:30), “good inhibitor of DNA replication”.

As for “PPKKKRKVTATADSQHS [peptide 417, rearranged control 17-mer]”, the “Effect on T-ag oligomerization” value in assay [1] (T-ag 6 pmol) is given as “did not inhibit”; in assay [1] (T-ag 6 pmol, listed as peptide T-417) it was “did not”. In addition, the “Binding to DNA in filter binding assay” value was “observed to bind to DNA” in assay [3] (setting [11]); “observed to bind to DNA at higher peptide concentrations” in assay [3] (high peptide concentrations (1 mM and 2 mM), listed as peptide T-417).

Regarding PPKKKRKVpTATADSQHS [peptide 317], the “Effect … (hexamer and double hexamer formation)” value in assay [1] is listed as “no inhibition of T-ag assembly”.

For “PPKKKRTADSQHS [peptide 413, rearranged control 13-mer]”, in assay [1] (setting [10]), the “Effect … (hexamer and double hexamer formation)” value is “little or no effect on T-ag oligomerization”. The “Binding to DNA in filter binding assay” value in assay [3] (setting [11]) was “Low levels of binding”; in assay [3] (high peptide concentrations (1 mM and 2 mM), listed as peptide T-413), “low levels of binding”. In addition, the “Peptide/DNA complex formation in peptide band shift” value in assay [4] (setting [8]) is “did not”.

Turning to PPKKKRpTADSQHS [peptide 313], in assay [1], the “Effect … (hexamer and double hexamer formation)” value is “little or no effect on T-ag oligomerization”.

As to “RKVLGSSQNSSGSEASEpTPVKRRK [peptide E1-P125]”, the “Binding to DNA in filter binding assay, E1 peptides” value in assay [3] is “binds to DNA at levels similar to the control peptide E1-425”. The “Effect on ATPase of T-ag” value in assay [5] is reported as “had no effect”.

For “SEASETPVKRRKGKRKVLGSSQNSS [control BP-E125]”, the “Inhibition of SV40” value in assay [6] is listed as “not an efficient inhibitor of replication”. Moreover, in assay [1] (5 nmol peptide, final concentration 0.25 mM, T-ag 6 pmol), the “Effect on T-ag assembly, E1 Cdk/NLS peptides” value is on record as “found not to block T-ag assembly”. For the same substance, in assay [3], the “Binding to DNA in filter binding assay, E1 peptides” value is given as “bound to DNA at much reduced levels”.

Regarding SQHSTPPKK [peptide 29], the “Peptide/DNA complex formation in peptide band shift” value in assay [4] (peptide 2 mM) is given as “binding was not detected”.
